For series [1], the target named is T1, recombinant human ASK1 protein (Homo sapiens, UniProt Q99683).
T1 sequence (Q99683 1-1374): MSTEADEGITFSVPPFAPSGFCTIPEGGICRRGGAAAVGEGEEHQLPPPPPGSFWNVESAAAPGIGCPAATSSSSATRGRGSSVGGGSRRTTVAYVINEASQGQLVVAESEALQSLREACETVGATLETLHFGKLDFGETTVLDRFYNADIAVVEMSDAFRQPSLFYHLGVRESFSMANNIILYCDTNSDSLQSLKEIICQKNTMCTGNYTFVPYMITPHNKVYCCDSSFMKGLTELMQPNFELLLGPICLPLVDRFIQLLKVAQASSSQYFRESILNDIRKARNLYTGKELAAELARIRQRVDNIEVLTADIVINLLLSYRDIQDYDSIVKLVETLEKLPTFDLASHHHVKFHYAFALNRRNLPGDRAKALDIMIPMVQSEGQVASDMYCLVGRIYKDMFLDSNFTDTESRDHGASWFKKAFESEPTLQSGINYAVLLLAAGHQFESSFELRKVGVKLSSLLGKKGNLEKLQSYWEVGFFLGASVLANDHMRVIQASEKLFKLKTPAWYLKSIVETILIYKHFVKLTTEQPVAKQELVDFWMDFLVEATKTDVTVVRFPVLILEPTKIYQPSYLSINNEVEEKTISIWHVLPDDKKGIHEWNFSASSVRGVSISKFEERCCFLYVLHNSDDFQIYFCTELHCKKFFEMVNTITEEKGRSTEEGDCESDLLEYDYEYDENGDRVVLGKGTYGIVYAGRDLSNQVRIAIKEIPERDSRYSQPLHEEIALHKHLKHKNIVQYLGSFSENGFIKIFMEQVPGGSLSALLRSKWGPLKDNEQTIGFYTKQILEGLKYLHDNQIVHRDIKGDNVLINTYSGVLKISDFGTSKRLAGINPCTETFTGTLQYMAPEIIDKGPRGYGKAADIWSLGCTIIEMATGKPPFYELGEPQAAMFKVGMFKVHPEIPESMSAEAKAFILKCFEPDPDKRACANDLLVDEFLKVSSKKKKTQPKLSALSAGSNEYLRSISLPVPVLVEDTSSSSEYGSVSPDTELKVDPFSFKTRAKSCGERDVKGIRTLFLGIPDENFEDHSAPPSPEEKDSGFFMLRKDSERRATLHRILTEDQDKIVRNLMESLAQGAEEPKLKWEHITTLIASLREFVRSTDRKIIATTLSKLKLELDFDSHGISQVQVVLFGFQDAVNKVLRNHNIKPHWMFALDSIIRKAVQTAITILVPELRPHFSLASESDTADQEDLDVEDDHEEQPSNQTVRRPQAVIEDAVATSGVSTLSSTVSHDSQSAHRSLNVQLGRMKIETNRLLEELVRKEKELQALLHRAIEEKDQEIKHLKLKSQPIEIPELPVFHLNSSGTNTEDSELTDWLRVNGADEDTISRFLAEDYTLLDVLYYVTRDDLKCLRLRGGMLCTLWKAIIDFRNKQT
Nature of the series: Evaluation of ASK1 inhibition activity ([gamma-33P]-ATP, scintillation counting). The format is biochemical. The protocol:
The recombinant human ASK1 protein was initiated by adding a mixture of Mg/ATP to the reaction solution (8 mM MOPS PH 7.0, 0.2 mM EDTA, 0.33 mg/mL myelin basic protein, 10 mM Mg Acetate and [gamma-33P]-ATP), and the reaction was terminated by adding 0.5% phosphoric acid after 40 min at room temperature.

The nature of series [2]: MDR-MDCK cell membrane permeability assessment. The following applies: dog; MDCK-MDR1 monolayer, 37° C., 2 hours. The format is in vitro ADME. The protocol: (§1) MDCK-MDR1 cells (5×10^5 cells/mL) were incubated on a 24-transwell plate (Corning, NY, USA) for 4 days to measure permeability through a single layer of MDR-MDCK cells. The medium was replaced with a new medium every two days, and the electrical resistance between epithelial tissues (TEER) was measured using a Millicell® ERS-2 Volohmmeter (Merck KGaA, Darmstadt, Germany), and the cell membrane permeability test was performed after confirming that this value was greater than or equal to 300 Ohm.cm^2.
(§2) The apical and basolateral chambers were washed twice each in the order of Hanks' Balanced Salt Solution (HBSS) containing DPBS buffer and 10 mM Hydroxyethyl piperazine Ethane sulfonic acid (HEPES), and in the final washing step, HBSS was filled and maintained at a stable state at 37° C. for 30 minutes. After 30 minutes, the test material was instilled in each chamber and left at 37° C. for 2 hours, and the culture medium of the transferred layer was collected at 30-minute intervals, and the collected amount was supplemented with new HBSS.
(§3) The apparent permeability coefficient (Papp, cm/sec) was calculated using the following formula:
(§4) [formula] • Papp: Apparent permeability • dQ/dt: Permeability of the drug • A: Area of the filter membrane on which the cells are laid • C_0: Initial concentration of the drug
(§5) In addition, the Efflux ratio was calculated as follows: […]

The test system of a further series is MDR1. Nature of the series: MDR-MDCK cell membrane permeability assessment. The format is in vitro ADME. The following applies: dog; MDCK-MDR1 monolayer. As to the method:
as §1, §2, §3, §4, §5

Series [3] relates to α-Syn transgenic Parkinson's disease mouse model. Nature of the series: α-Syn transgenic Parkinson's disease mouse model: step error (beam test). Type of series: in vivo. The following applies: at 7 and 9 months; Memantine 10 mg/kg, Example 3 2/10/50 mg/kg, Example 2 2 mg/kg PO QD; vs G2. The protocol:
(§6) The test drug was administered once daily (QD) via oral administration (PO) with a solution of 5 ml/kg for 5 months from 4 months to 9 months of age. Motor behavior tests (beam test) and neurological scores (modified Irwin test) were performed at 4 months (before administration), 7 months, and 9 months. After the final behavioral test, tissue samples were taken. Weight was measured on the same day once a week from 4 months of age until the end of the study.
The procedure described by Fleming et al. (J Neurosci, 24:9434-40, 2004) was adopted as the beam test (Challenging Beam Traversal). Exercise capacity was measured with a new beam test that was a modification of the existing beam walking test. The beam is made of Plexiglas and consists of four sections (each 25 cm and a total length of 1 m), each with a different width. The beam is designed to start at 3.5 cm wide and gradually narrow in increments of 0.5 cm×1 cm. A shelf 1 cm wide was placed 1.0 cm below the top surface of the beam.
The mouse was trained to cross the length of the beam, starting from the widest section and ending with the narrowest and most difficult section. The narrow end of the beam is designed to connect directly to the mouse's house cage. The mice were trained for two days before testing, and all training was carried out without a mesh grid. On the first day, two auxiliary exercises were performed, in which the mouse was placed on a beam and the home cage was placed close to the mouse. This induces it to move forward along the beam. […]
The error was counted if the limb (front or hind leg) passed through the grid during forward movement and was visible between the grid and the beam surface. […] Error was measured by scoring each limb slippage individually. For example, a mouse with three limbs slipping off the grid in one step was rated with an error score of 3 points, while a mouse with only one limb slipped off the grid in one step was evaluated with an error score of 1 in that step. […] The number of step errors and the time it took to cross were measured and averaged in all five experiments.

Series [4] shares this test system. Put plainly: α-Syn transgenic Parkinson's disease mouse model: microglial reduction (Iba-1). The format is in vivo. The conditions noted are these: 9 months of age; Memantine 10 mg/kg (G3), G4 2 mg/kg, G5 10 mg/kg, G7 2 mg/kg PO QD. As to the method:
as §6
At 9 months of age, the measurement period ended, the mice were anesthetized, and then the experiment was terminated by cardiac puncture according to IACUC guidelines. Mice were perfused transcardially with 0.9% saline for tissue staining, followed by 4% paraformaldehyde until the mice were fixed. The brains were isolated and immobilized by soaking in 4% paraformaldehyde at 4° C. for 24 hours, followed by 30% sucrose added to PBS containing 0.02% sodium azide and stored at 4° C. for 3 days. Brain samples embedded in OCT compounds were sectioned to a thickness of 20 μm using Leica CM1950 (Leica Microsystems, Germany). The sections were stored at 4° C. in a preservation solution until they were stained by antibodies. […]
To assess microgliosis of the cortex, Iba-1-stained brain tissue was imaged in experimental example 10.5 using an immunofluorescence microscope (Olympus, BZ21) in Olympus. Each marker was manually counted to quantify Iba1.

From patent US20260138969A1 (Korea Research Institute of Chemical Technology, priority 2023, published 2026) come the findings set out here.

As a reminder, the IC50 is the concentration needed to halve the response being measured. What is called Papp A→B is how fast a substance crosses the layer from the apical side. As usually defined, the Papp B→A is how fast a substance crosses the layer from the basolateral side. The term efflux ratio denotes the permeability from basolateral to apical divided by that in the opposite direction, in the common usage.

On to `Cc1cc(F)c(C(=O)Nc2cccc(-n3nnc4c3CCCCC4)n2)cc1-n1cnc(C2CC2)c1` [Example 4, 5-(4-cyclopropyl-1H-imidazole-1-yl)-2-fluoro-4-methyl-N-(6-(5,6,7,8-tetrahydrocyclohepta[d][1,2,3]triazole-1 (4H)-yl)pyridine-2-yl)benzamide], for which the IC50 in series [1] was found to be 92 nM. In series [2], the Papp A→B at 2 h was 57.3 ± 4.23 ×10⁻⁶ cm/s and the Papp B→A at 2 h turned out to be 87.4 ± 3.39 ×10⁻⁶ cm/s. In the series on MDR1, the efflux ratio at 2 h worked out at 1.53.
`CC12CC3CC(C)(C1)CC(N)(C3)C2` [Memantine, reference compound]: the “number of step errors (beam test)” value in series [3] is “significant reduction in the number of step errors compared to Group G2”. The “number of IBA-1 positive cells in the cerebral cortex” value in series [4] is on record as “significantly reduced”.
